Reference: PubChem BioAssay AID489033 (Sanford-Burnham Center for Chemical Genomics, 2010)
Activity calls are given as the source filed them. No rule for the calls is given here.

System: 697B B-cell line, NF-kB luciferase reporter luminescence
Experiment: inhibitors of B-cell NF-kB luciferase signal – 697B cells, luminescence, selectivity assay for T-cell antigen receptor NF-kB inhibitors, dose response (AID 489033)

Row | Structure (SMILES) | IC50
1 | Cc1c(C(=O)OC2CCCC2)[nH]c2c1C(=O)CC(c1ccco1)C2 (stereo unspecified) | > 80 µM (inactive)
2 | CCOc1ccc2c(c1)OC(c1ccc(OC)cc1)(C(F)(F)F)NC2=O (stereo unspecified) | > 80 µM (inactive)
3 | COc1ccc(NS(=O)(=O)c2cc(-c3cnc(C4CC4)o3)ccc2C)cc1 | > 80 µM (inactive)
4 | CCCC(=O)NC(c1ccc(N(C)C)cc1)c1ccc2cccnc2c1O (stereo unspecified) | > 80 µM (inactive)
5 | Cc1ccc2[nH]c3c(c2c1)CCCC3NC(=O)CCl (stereo unspecified) | 1.67 µM
6 | O=C(Nc1ccc([N+](=O)[O-])cc1)Nc1ccon1 | > 80 µM (inactive)
7 | COc1ccc(OC)c(CCNC(=O)Cn2nc(C)c3c(C)n(-c4ccc(C)cc4)nc3c2=O)c1 | > 80 µM (inactive)
8 | Clc1cccc(Cl)c1OCCOCCNCc1ccccc1 | > 80 µM (inactive)
9 | CCOc1ccc(-c2[nH]ncc2-c2ccc(OC)c(OC)c2)c(O)c1 | > 80 µM (inactive)
10 | Cc1ccc(C(=O)c2cc([N+](=O)[O-])ccc2N2CCOCC2)cc1C | > 80 µM (inactive)
11 | CCOC(=O)/C=C/S(=O)(=O)c1ccc(NC(C)=O)cc1 | 0.39 µM
12 | Cc1ccc(O)c(NC(=O)c2cc(-c3ccccc3)on2)c1 | > 80 µM (inactive)
13 | O=[N+]([O-])c1nn(-c2ccc3c(c2)OCCO3)n(O)c1=Nc1ccccc1 | < 0.16 µM
14 | COc1ccc(Nc2nc3cc(C)ccc3cc2C#N)c(OC)c1 | > 80 µM (inactive)
15 | COc1cccc(-c2cc(C(=O)Nc3cc(C)n(Cc4ccc(Cl)cc4)n3)no2)c1 | > 80 µM (inactive)
16 | COc1ccccc1NC(=O)C1=C(C)Nc2nc3ccccc3n2C1c1cccs1 (stereo unspecified) | > 80 µM (inactive)
17 | CC[n+]1cc(C)ccc1/C=C/c1ccc(N(C)C)cc1 | > 80 µM (inactive)
18 | Cc1ccc(C(=O)c2cc([N+](=O)[O-])ccc2N2CCCCC2)cc1C | > 80 µM (inactive)
19 | Cc1cc(-n2c(C)cc(C(=O)CSc3ncnc4ccccc34)c2C)no1 | 67 µM (inactive)
20 | COc1ccc(/C=N/NC(=O)COc2ccccc2-c2ccccc2)cc1 | 76.2 µM (inactive)
21 | COc1ccc(COC(=O)c2cc([N+](=O)[O-])ccc2N2CCOCC2)cc1F | 37.1 µM (inactive)
22 | O=C1C=CC(O)(c2cc(=O)c3c(O)cc(O)cc3o2)C=C1 | 1.62 µM
23 | Cc1ccc(C[n+]2c(-c3ccc(C)cc3)cc(-c3ccc(C)cc3)cc2-c2ccc(C)cc2)cc1 | 0.29 µM
24 | O=C(Nc1ccc(CSc2ccccc2)cc1)c1ccc(CN2CCOCC2)cc1 | > 80 µM (inactive)

Row | Structure (SMILES) | IC50
25 | CCOC(=O)COc1cccc2c(=O)n(CC(=O)NCc3ccccc3)ccc12 | > 80 µM (inactive)
26 | CCN1/C(=C/C(C)=C/c2sc3ccccc3[n+]2CC)Sc2ccccc21 | 2.42 µM
27 | CCCOCCOC(=O)c1[nH]c2c(c1C)C(=O)CC(c1cc(OC)ccc1OC)C2 (stereo unspecified) | > 80 µM (inactive)
28 | CC(C)Nc1ccc(C(CC(N)=O)NC(=O)c2ccc(Br)cc2)cc1[N+](=O)[O-] (stereo unspecified) | > 80 µM (inactive)
29 | Cc1ccc(C)c(CSc2nc3[nH]ncc3c(=O)[nH]2)c1 | 15.7 µM
30 | O=c1oc2ccccc2cc1-c1cn(-c2ccccc2)c(=S)[nH]1 | 0.55 µM
31 | Cc1nc2ccccc2c2c1CC(C(C)(Cl)Br)O2 (stereo unspecified) | 22.8 µM (inactive)
32 | CCOC(=O)c1ccc2nc(Nc3nc4ccc(F)cc4s3)sc2c1 | 20.3 µM (inactive)
33 | CCCC(=O)NC(c1ccc(OC)cc1)c1ccc2cccnc2c1O (stereo unspecified) | > 80 µM (inactive)
34 | Cc1cnc(NC(=O)c2ccc3c(c2)OCCO3)s1 | 1.08 µM
35 | COc1cc(C2c3cc4c(cc3C(OC3OC5COC(c6cccs6)OC5C(O)C3O)C3COC(=O)C23)OCO4)cc(OC)c1O (stereo unspecified) | 3.94 µM
36 | COc1ccc(Nc2ncnc3ccc(Br)cc23)c(OC)c1 | 0.37 µM
37 | COc1ccc(NS(=O)(=O)c2ccc(-c3cnc(C4CC4)o3)cc2)cc1OC | > 80 µM (inactive)
38 | Cc1ccnc2c1ccc1c(C)ccnc12 | 10.1 µM
39 | C[C@]12CCC3C(CCC4=CC(O)CC[C@@]43/C=N/O)C1(O)CCC2C1=CC(=O)OC1 (stereo partly specified) | 2.58 µM
40 | Cc1cccc(N2CCN(C(=O)c3ccc4[nH]c(C)c(C)c4c3)CC2)c1C | > 80 µM (inactive)
41 | Cc1ccc(C(=O)O/N=C(\N)c2ccccn2)c(Cl)c1 | 0.86 µM
42 | Cc1ccc(C(=O)c2cc([N+](=O)[O-])ccc2N2CCCCC2)cc1 | > 80 µM (inactive)
43 | COc1cc(Cn2c(-c3nonc3N)nc3ccccc32)ccc1C | > 80 µM (inactive)
44 | CCOC(=O)C(C)Oc1cccc2c(=O)n(CC(=O)NCc3ccccc3)ccc12 (stereo unspecified) | > 80 µM (inactive)
45 | COc1cc(NS(=O)(=O)c2ccc(C)cc2)c2ncccc2c1 | 1.05 µM
46 | O=S1(=O)C=C(Sc2nc3ccccc3s2)c2ccccc21 | 0.32 µM
47 | CC(=O)Nc1ccc(S(=O)(=O)N2CCSc3ccccc32)cc1 | > 80 µM (inactive)
48 | CCOC(=O)N/N=C/c1c(C)nn(-c2cccc(C(F)(F)F)c2)c1Cl | > 80 µM (inactive)

Row | Structure (SMILES) | IC50
49 | CCc1ccc(N2C(=O)C(Cl)=C(Nc3ccc(C(=O)N4CCCC4)cc3)C2=O)cc1 | 2.28 µM
50 | Cc1nn(C)c(C)c1CN(Cc1nc(CCC(C)C)no1)C(C)C | > 80 µM (inactive)
51 | COc1ccc(C(=O)N2CCN(c3ccc([N+](=O)[O-])c(NCCc4ccc(OC)c(OC)c4)c3)CC2)cc1 | > 80 µM (inactive)
52 | O=C(N/N=C(\c1ccccc1)c1cccnc1)c1cccc(F)c1 | 3.1 µM
53 | CCCCS(=O)(=O)/C=C\C=C/S(=O)(=O)CCCC | 3.51 µM
54 | Cn1nc(CC(=O)Nc2ccc(N3CCN(C(=O)OC(C)(C)C)CC3)cc2)c2ccccc2c1=O | > 80 µM (inactive)
55 | O=C(Nc1nc(-c2ccccn2)cs1)c1ccc(Cl)s1 | < 0.16 µM
56 | CC(C)Oc1ccccc1C1CC(=O)Nc2cc3c(cc21)OCCO3 (stereo unspecified) | 59.5 µM (inactive)
57 | CCC(C)C(=O)N[C@@H](c1ccccc1)[C@@H](O)C(=O)O[C@H]1C[C@@]2(O)[C@@H](OC(=O)c3ccccc3)C3[C@](C)(C(=O)[C@H](OC(C)=O)C(=C1C)C2(C)C)[C@@H](O)C[C@H]1OC[C@@]31OC(C)=O (stereo partly specified) | > 80 µM (inactive)
58 | CCOC(=O)c1ccccc1NC(=O)Cn1c(-c2nonc2N)nc2ccccc21 | > 80 µM (inactive)
59 | Cc1ccc(Oc2ccc(OCC(=O)Nc3ccncc3)cc2)cc1 | 58.6 µM (inactive)
60 | COc1cc(-c2c(-c3cc(OC)c(OC)c(OC)c3)noc2C)ccc1F | > 80 µM (inactive)
61 | CCOc1ccc(N(C)S(=O)(=O)c2ccc(-c3cc(C)no3)s2)cc1 | > 80 µM (inactive)
62 | CCOc1ccccc1NC(=O)CN(c1ccc(OC)cc1)S(=O)(=O)c1c(C)noc1C | > 80 µM (inactive)
63 | CCCCOc1ccc(Br)cc1/C(C)=N/NC1=NCCN1 | 28.6 µM (inactive)
64 | CCOC(=O)C(C)Oc1cccc2c(=O)n(CC(=O)NCc3ccc4c(c3)OCO4)ccc12 (stereo unspecified) | > 80 µM (inactive)
65 | Cn1nc([N+](=O)[O-])nc1Sc1nnc(-c2ccccc2)o1 | 17.8 µM
66 | COc1ccc(NC(=O)/C(Cl)=C(/Cl)S(=O)Cc2ccc(C)cc2)cn1 (stereo unspecified) | < 0.16 µM
67 | COc1ccc(CCNc2nnc(Sc3nnnn3-c3ccccc3)s2)cc1OC | 18.9 µM
68 | c1ccc2c(c1)CCN(c1ncnc3c1[nH]c1ccccc13)C2 | 16.8 µM
69 | CN(C)c1ccc(-[n+]2c(-c3ccccc3)cc(-c3ccccc3)cc2-c2ccccc2)cc1 | 0.79 µM
70 | CC[C@@]1(O)C(=O)OCc2c1cc1n(c2=O)Cc2cc3c(N)cccc3nc2-1 | 0.62 µM
71 | CC(C)(C)c1cc(C=C(C#N)C#N)cc(C(C)(C)C)c1O | > 80 µM (inactive)
